# Read-outs that look alike come from different tables or passages of the source.
# Columns and labels:
# NCI-H522 cells [1] = test: Cytotoxicity (methylene blue cell viability), NCI-H522; type: cell-based, human; settings: Homo sapiens
# Method: (§1) Having synthesized the CETZOLE analogs, their cytotoxic activity was evaluated. […] NCI-H522 RV-GFP is the corresponding control with RV-GFP tag, but without SLC7A11 overexpression. […] The cytotoxicity screening was conducted as described previously.
# (§2) Cell lines were cultured in a humidified atmosphere containing 10% CO2 in Dulbecco's modified Eagle's medium (Mediatech, Inc) supplemented with 10% fetal bovine serum (Atlanta Biologicals). Cell types used MEFs, HT1080 (human fibrosarcoma cells), NARF2 (osteosarcoma), WI-38 (human embryonic lung fibroblast), MDA MB 231 (breast cancer), HCT-116 (human colon), and NCI-H522 (Non-Small Cell Lung Cancer) cell lines. To determine viability throughout these examples, 5,000 cells were plated per well of a 96-well plate and drugs were added 1 day later. Cells were stained 1 to 3 days later with a saturated solution of methylene blue in 50% ethanol. Plates were rinsed and retained dye was quantified by spectrophotometry. Absorbance was normalized to DMSO and given as 1 or 100% for cell viability. Results are representative of at least two independent experiments. Statistical significance was assessed using the Student's t test. All commercially available chemicals were obtained from Cayman Chemicals unless otherwise noted.
# HT-1080 cells = test: Cytotoxicity (methylene blue cell viability), HT-1080; type: cell-based, human; settings: Homo sapiens
# Method: as §1, §2
# MDA-MB-231 cells = test: Cytotoxicity (methylene blue cell viability), MDA-MB-231; type: cell-based; settings: Homo sapiens
# Method: as §1, §2
# [2] = system: NCI-H522, HT-1080, and MDA-MB-231 cells; test: Cytotoxicity screening of CETZOLE probes and negative controls; type: cell-based; settings: 20 μM maximum concentration
# Description: The benzophenone bromo-alkane 28e was obtained by selective EDC coupling of diaminobenzophenone 31 with 4-pentynoic acid 32 to obtain amide 33, followed by dropwise addition of bromoacetyl bromide 30 to a solution of 33 and TEA in DCM. To obtain intermediate 28f, Boc-protection of methyl 2-amino-5-bromobenzoate 34 to get 35, followed by installing an azide group at the para position employing Markiewicz and Helquist conditions, gave the azide 36. This was subjected to saponification followed by EDC coupling with propargyl amine 38 to obtain 39. Boc deprotection to get 40 was followed by acylation of the resulting amine with bromoacetyl bromide 30 afforded the bromo alkane 28f. They were screened for activity on NCI-H522, HT-1080, and MDA-MB-231 cells prior to using in target identification.
# A similar cytotoxicity trend was observed on HT-1080 and MDA-MB-231 cancer cell lines.
# Cell lines were cultured in a humidified atmosphere containing 10% CO2 in Dulbecco's modified Eagle's medium (Mediatech, Inc) supplemented with 10% fetal bovine serum (Atlanta Biologicals). […] Plates were rinsed and retained dye was quantified by spectrophotometry. Absorbance was normalized to DMSO and given as 1 or 100% for cell viability. […] Statistical significance was assessed using the Student's t test. […]
# NCI-H522 cells [3] = type: cell-based; settings: human, 3 days
# Description: FIGS. 10A-10C: Results of live cell imaging.
# FIG. 16: Evaluation of ferroptosis-inducing character of CETZOLE probes. A three-day ferroptosis rescue assay of NCI-H522 cells treated with DMSO, 1, RSL3, and CETZOLE analogs, and liproxstatin-1 co-treatment, showing significant ferroptosis inducing probes.
# The live cell montage images in FIG. 10A show notable ferroptosis-related morphological changes, such as membrane breakage and floating cell debris in the medium. The NCI-H522 cell viability improved overall when cells were co-treated with the radical scavenger liproxstatin-1 (FIG. 10C). […] To confirm this, flow-cytometry was performed to quantify lipid peroxidation using redox-active BODIPY-C11 (FIGS. 11A-11E).
# Overall, CETZOLE probes do induce radical-mediated cell death and are therefore indeed ferroptotic agents.
# as §2, with “noted. Compound CETZOLE 1 and the analogs were synthesized as highlighted.” for “noted.”
# HeLa cells = test: Cellular localization of probes by bio-imaging; type: cell-based; settings: 37° C. one hour, TAMRA-PEG-3-azide click
# Method: FIGS. 17A-17E: Cellular localization of CETZOLE probes. […] Cells were incubated with the respective agent, permeabilized, subjected to TAMRA-PEG3 azide ligation, and viewed under microscope.
# The thiazole alkyne pharmacophore undergoes thiol addition. Therefore, PPd is believed to interact covalently with the target protein, and the propargyl alkyne serves as a clickable bio-orthogonal handle for attaching reporter tags. On the other hand, PPe has a photoactivatable benzophenone moiety that covalently binds to the target protein(s) upon photo irradiation. Bio-imaging experiments were conducted to determine the spatial localization of CETZOLE probes in HeLa cells using fluorescent reporter tags. For this, HeLa cells were incubated with probe PPd and the negative control NPd (FIG. 17A) at 37° C. for one-hour. The cells were washed with cold PBS, fixed with formaldehyde (5%), permeabilized with triton-X, and subjected to bioorthogonal click reaction with TAMRA-PEG-3-azide in the presence of tris-hydroxypropyltriazolylmethylanine (THPTA), copper (II) sulfate (CuSO4), and sodium ascorbate. After multiple washings, cells were transferred on to a microscope viewing slide, stained with Hoechst dye, and observed under Olympus microscope (FIGS. 17C-17E).
# [4] = system: NCI-H522 GFP-SLC7A11 #8 cells; test: Cytotoxicity (methylene blue cell viability), NCI-H522 clone overexpressing GFP-SLC7A11; type: cell-based, human; settings: Homo sapiens; Table 1; NCI-H522 clone overexpressing GFP-tagged SLC7A11; read-out: Half maximal inhibitory concentration (IC50), NCI-H522 GFP-SCL7A11 #8
# Method: as §1, §2
# NCI-H522 RV-GFP cells = test: Cytotoxicity (methylene blue cell viability), NCI-H522 RV-GFP control clone; type: cell-based, human; settings: Homo sapiens, NCI-H522; Table 1; control clone with RV-GFP tag; read-out: Half maximal inhibitory concentration (IC50), NCI-H522 Rv-GFP
# Method: as §1, §2
# NARF2 cells = test: Cytotoxicity (methylene blue cell viability), NARF2; type: cell-based, human; settings: Homo sapiens; Table 1; NARF2 osteosarcoma cells; read-out: Half maximal inhibitory concentration (IC50), NARF2
# Method: as §1, §2
# WI38 cells = test: Cytotoxicity on normal cell line WI38; type: cell-based, human; settings: Homo sapiens, WI-38; Table 2; lung tissue fibroblast; read-out: Half maximal inhibitory concentration (IC50), Normal Cell Line WI38
# Method: (§3) To determine cytotoxicity at a therapeutically more relevant concentration, cells were treated at a single concentration of […] (FIG. 12).
# as §2
# [5] = system: MEFs (Mouse Embryonic Fibroblasts); test: Cytotoxicity on normal cell line MEFs; type: cell-based; settings: Fibroblast; Table 2; Mouse Embryonic Fibroblasts; read-out: Half maximal inhibitory concentration (IC50), Normal Cell Line Mefs
# Method: as §3, §2
# [6] = system: NCI-H522 and HT-1080 cancer cell lines, WI38 and MEFs normal cell lines; test: Selective cytotoxicity assay at a single concentration; type: cell-based; parameters: dose or concentration left out as unconfirmed; settings: NCI-H522, HT-1080, WI38, MEFs
# Method: Overall, WI38 cells were the most tolerant to the treatment, whereas MEF cells were partially tolerant and relatively less sensitive than both NCI-H522 and HT-1080 cells. To determine cytotoxicity at a therapeutically more relevant concentration, cells were treated at a single concentration of […] (FIG. 12).
# as §2, with “noted. Compound CETZOLE 1 and the analogs were synthesized as highlighted.” for “noted.”
# [7] = system: 60 human cancer cell lines; test: NCI 60 human cancer cell line assay, single dose; type: cell-based; settings: single dose of 10 μM, 60 cell lines
# Method: (§4) The cell lines used in this assay belonged to leukemia, non-small-cell lung cancer, colon cancer, CNS cancer, melanoma, ovarian cancer, renal cancer, prostate cancer, and breast cancer. The compounds were first tested at a single dose of 10 μM.
# [8] = system: renal cancer cell line UO-31; test: NCI 60 cell line assay, single dose, UO-31; type: cell-based, human; settings: single dose of 10 μM
# Method: as §4, with “μM. Analogue 20a was the most cytotoxic with a mean percentage growth of 1.24 (FIG. 13A). […] Analogs 20a and 23 were further tested in the NCI dose response assay ([…]).” for “μM.”
# [9] = system: renal cancer cell line 786-0; test: NCI 60 cell line assay, single dose, 786-0; type: cell-based, human; settings: single dose of 10 μM
# Method: as §4, with “μM. Analogue 20a was the most cytotoxic with a mean percentage growth of 1.24 (FIG. 13A). […] Analogs 20a and 23 were further tested in the NCI dose response assay ([…]).” for “μM.”
# [10] = system: ovarian cancer cell line IGROV1; test: NCI 60 cell line assay, single dose, IGROV1; type: cell-based, human; settings: single dose of 10 μM
# Method: as §4, with “μM. Analogue 20a was the most cytotoxic with a mean percentage growth of 1.24 (FIG. 13A). […] Analogs 20a and 23 were further tested in the NCI dose response assay ([…]).” for “μM.”
# [11] = system: leukemia, ovarian cancer, and renal cancer cell lines; test: NCI dose response assay; type: cell-based, human
# Method: as §4
# [12] = NCI-H522, Table 3, probes and negative controls, read-out: IC50, NCI-H522
# [13] = HT-1080, Table 3, probes and negative controls, read-out: IC50, HT-1080
# [14] = MDA-MB-231, Table 3, probes and negative controls, read-out: IC50, MDA-MB-231
compound,measurement,setting,value
"C#Cc1nc(C2=C(C)C(=O)/C(=N/OCC(=O)Nc3ccc4oc(=O)c(C)cc4c3)C2)cs1 [PPc, (E)-2-(((4-(2-Ethynylthiazol-4-yl)-3-methyl-2-oxocyclopent-3-en-1-ylidene)amino)oxy)-N-(3-methyl-2-oxo-2H-chromen-6-yl)acetamide]",IC50,NCI-H522 cells [1]; [12],> 20000 nM
same,IC50,HT-1080 cells; [13],> 20000 nM
same,IC50,MDA-MB-231 cells; [14],> 20000 nM
same,cytotoxicity at maximum concentration tested,[2],did not induce any cytotoxicity
"C#CCO/N=C1\CC(c2csc(C#C)n2)=C(C)C1O (centres unmarked) [PPd, 4-(2-Ethynylthiazol-4-yl)-2-hydroxy-3-methylcyclopent-3-en-1-one 0-prop-2-yn-1-yl oxime]",IC50,NCI-H522 cells [1]; [12],2310 ± 1080 nM
same,IC50,HT-1080 cells; [13],1170 ± 120 nM
same,IC50,MDA-MB-231 cells; [14],2700 ± 720 nM
same,cell viability on liproxstatin-1 co-treatment (rescue),NCI-H522 cells [3],75%
same,spatial localization of probe,HeLa cells,intense intracellular aggregation of probe in the nucleus and vacuoles
"C#Cc1nc(C2=C(C)C(OC(C)=O)/C(=N/OC(C)=O)C2)cs1 (centres unmarked) [compound 20a, (E)-5-(Acetoxyimino)-3-(2-ethynylthiazol-4-yl)-2-methylcyclopent-2-en-1-yl acetate]",IC50,"NCI-H522 cells [1]; NCI-H522, Table 2, read-out: Half maximal inhibitory concentration (IC50), Cancer Cell Line NCI-H522",170 ± 80 nM
same,IC50,"NCI-H522 cells [1]; Table 1, NCI-H522 cancer cell line, read-out: Half maximal inhibitory concentration (IC50), NCI-H522",170 ± 80 nM
same,IC50,[4],1590 ± 490 nM
same,IC50,NCI-H522 RV-GFP cells,260 ± 110 nM
same,IC50,"HT-1080 cells; HT-1080, Table 2, read-out: Half maximal inhibitory concentration (IC50), Cancer Cell Line HT1080",140 ± 60 nM
same,IC50,"HT-1080 cells; Table 1, HT-1080 fibrosarcoma cell line, read-out: Half maximal inhibitory concentration (IC50), HT-1080",140 ± 60 nM
same,IC50,NARF2 cells,7260 ± 2010 nM
same,IC50,"MDA-MB-231 cells; Table 1, MDA-MB-231 breast cancer cell line, read-out: Half maximal inhibitory concentration (IC50), MDA-MB-231",230 ± 20 nM
same,IC50,WI38 cells,1530 ± 360 nM
same,IC50,[5],120 ± 60 nM
same,cell viability on liproxstatin-1 co-treatment (rescue),NCI-H522 cells [3],60%
same,cell death at a single concentration,[6],killed only the cancer cell lines NCI-H522 and HT-1080
same,mean percentage growth,[7],1.24
same,"percentage growth, UO-31",[8],−95%
same,"percentage growth, 786-0",[9],−95%
same,"percentage growth, IGROV1",[10],−95%
same,sensitivity of cell lines in dose response assay,[11],particularly sensitive
